Test results from US20220389420A1, “AGENTS FOR THE TREATMENT OF PATIENTS WITH NSCLC AND METHODS TO PREDICT RESPONSE” (CENTRE NATIONAL DE LA RECHERCHE SCIENTIFIQUE, priority 2016, published 2022).

Key:
[1] = test system: A549 cells; assay: Functional genetic screen for miRNAs inducing cisplatin resistance; format: cell-based; settings: pre-miR library transfected two days, then cisplatin 60 μM three days, Cell Titer Glow assay
Experimental: A549 cells were transfected with the pre-miR library for two days and the transfected cells were then exposed to cisplatin at 60 μM for three days. Cell viability was measured in single well using Cell Titer Glow assay.
(A): Plot of normalized viability versus −log10 FDR-adjusted P-value for all miRNAs overexpressed in A549 cells. Vertical dashed lines denote the selected normalized viability cutoff, while the Horizontal line denotes the 0.01 selected FDR-adjusted P-value cutoff. Each dot represents a miRNA. Dots surrounded in the upper right quadrant represent miRNAs associated with cisplatin resistance at the chosen cutoffs. The standardized residual viability of the miR-24-3p miRNA was estimated at 4.9512.
Functional genetic screen. Mimics were transfected in authenticated A549 lung adenocarcinoma cell line in 96 well plate format. 48 h following transfection, cells were exposed to cisplatin at 60 μM (2 times DL50; DL50 corresponding to the drug concentration lethal to 50% of the tumor cells) for three days. Viability was assessed using the cell titer glo assay (Promega). […]
miRNA candidate selection. miRNA candidates were selected for further analysis based on statistical significance (p<0.01) and degree of resistance induced (assessed by viability after drug exposure, normalized viability above 3).

[2] = test system: A549 cells; assay: Cisplatin sensitivity of A549 cells overexpressing miRNA (Annexin V/PI, ATP-based viability); format: cell-based
Experimental: A549 cells were transfected with pre-miR-24-3p for 2 days and the transfected cells were then exposed to either cisplatin or vinorelbin.
(A): Annexin V/PI staining of A549 cells overexpressing miR-24-3p and exposed to 60 μM cisplatin for 24 h.
(B): Vinorelbin dose response analysis of A549 cells overexpressing miR-24-3p. An ATP-based assay was used to assess cell viability.
(§1) Transfection. Pre-miR-24-3p, and control miRNA (miR-Neg #1) were purchased from Life technologies. For miR-24-3p knockdown experiments, LNA anti-miR-24-3p and LNA negative control were ordered from Exiqon. siRNA directed against BIM, PUMA, PNPO and PDXK were purchased from Life technologies. A549 and H1299 cells were grown in 10% FCS in DMEM and transfected at 30 to 40% confluency in 6-12- or 96 well plates using Lipofectamin RNAi MAX™ (Life technologies) with pre-miRNA, siRNAs LNA inhibitors at a final concentration of 5 nM unless indicated.
Annexin V assay. Annexin-V-FITC apoptosis detection kit (Life technologies) was used to detect apoptotic activity. […] Annexin-V-FITC binding was determined by flow cytometry (excitation wavelength of 488 nm; emission wavelength of 530 nm) using the FITC signal detector (FL1), and propidium iodide staining was detected by the phycoerythrin emission signal detector (FL2).

[3] = test system: A549 cells; assay: Caspase 3 dependent apoptotic response induced by cisplatin (Western blot); format: cell-based; settings: miRNA overexpression in A549 cells
[4] = test system: A549 cells; assay: DNA damage response induced by cisplatin (nuclear foci, confocal microscopy); format: cell-based; settings: 7 h following cisplatin exposure, miRNA overexpression
Experimental: A549 cells overexpressing miR-24-3p were exposed to cisplatin for 7 h and nuclear foci of (i) phosphorylated histone H2A.X at SER139 (y-HAX) and (ii) phosphorylated ATM at Ser1981 (p-ATM) were assessed by confocal microscopy.
(C): percentage of cells (n=3) exposed to cisplatin and containing more than five nuclear foci of y-HAX and phosphor-ATM, respectively after miR-24-3p overexpression.
Immunofluorescence analysis. A549 cells were grown on a Round Glass Coverslips Ø16 mm (thermo scientific) placed inside a 12 Multiwell Plate. Coverslips slides were washed in phosphate-buffered saline and fixed in 4% paraformaldehyde for 15 min, cells were then permeated using 0.1% Triton X-102 (Agilent Technologies) for 10 min. and blocked with PBS solution containing BSA (3%) for 30 min. Incubation with primary antibodies was performed in a blocking solution BSA (1%) at 37° C. for 1 h. After three washes with PBS, cells were incubated with secondary antibodies. Forty five min later, Coverslips slides were fixed on microscope slides using ProLong Gold Antifade Reagent with DAPI (Invitrogen). Fluorescence was viewed with an FV10i Olympus confocal scanning microscope.

[5] = test system: human BIM 3′UTR; assay: Luciferase assay, BIM 3′UTR psiCHECK-2 construct in HEK293 cells; format: cell-based; settings: two days after co-transfection, versus pre-miR-Neg
Experimental: (§2) (B): Results of luciferase assays in HEK293 cells transfected with the indicated constructions and pre-miR-24-3p or control miRNA.
(§3) Cells were harvested two days after transfection and luciferase activity were analysed. All renilla luciferase activities were normalized with firefly luciferase activity. **p<0.01.
(§4) Luciferase assay. Molecular constructs were made in psiCHECK-2 (Promega) by cloning behind the Renilla luciferase in the XhoI and NotI restrictions sites, annealed oligonucleotides derived from BIM, PUMA 3′ UTR. HEK293 cells were plated into 96-well and cotransfected using lipofectamin 2000 (Invitrogen) with 0.2 μg of psiCHECK-2 plasmid construct and pre-miR-24-3p or control miRNA at different concentrations. 48 hours after transfection, Firefly and Renilla Luciferase activities were measured using the Dual-Glo Luciferase assay (Promega).

[6] = test system: PUMA 3′UTR; assay: Luciferase assay, PUMA 3′UTR psiCHECK-2 construct in HEK293 cells; format: cell-based, human; settings: two days after co-transfection, versus pre-miR-Neg
Experimental: as §2, §3, §4

[7] = test system: H1299 cells; assay: Cisplatin resistance validation in H1299 cells; format: cell-based; settings: H1299, homozygous partial deletion of the TP53 gene
Source text: (A) Kill curve of H1299 cells (with a homozygous partial deletion of the TP53 gene) overexpressing miR-24-3p or a miRNA control and exposed to increasing dose of cisplatin.
(§5) (B) Validation of the effects of cisplatin in two LUAD cell lines, H1299 (with a homozygous partial deletion of the TP53 gene) and H1975 (homozygous for the c.818G<A mutation of the TP53 gene).
as §1
Functional genetic screen validation for miR-24-3p. Data were confirmed independently on a distinct lung adenocarcinoma cell line (H1299). Specificity to cisplatin resistance was assessed using docetaxel and vinorelbine.

[8] = test system: H1975 cells; assay: Cisplatin resistance validation in H1975 cells; format: cell-based; settings: H1975, homozygous c.818G>A mutation of the TP53 gene
Source text: as §5

pre-miR-24-3p: miRNA mimic purchased from Life technologies, used to overexpress miR-24-3p (UGGCUCAGUUCAGCAGGAACAG, SEQ ID No:1) (listed as RNA, chemistry not given here)
standardized residual viability [1]: 4.9512
resistance to platinum based-compounds (cisplatin, carboplatin, oxaliplatin) ([2]; A549 cells overexpressing the miRNA, comparison with vinorelbin treatment): strongly resistant
response to cisplatin ([2]; A549 cells transfected with pre-miR, versus cells not overexpressing miR-24-3p): the response to cisplatin was lesser
caspase 3 dependent apoptotic response induced by cisplatin [3]: strongly inhibits
ATM signaling [4]: decreased ATM signaling
DNA damage (phospho-yH2AX nuclear foci) [4]: less DNA damage
direct targeting of BIM 3′UTR (renilla luciferase normalized with firefly) [5]: direct targets
direct targeting of PUMA 3′UTR (renilla luciferase normalized with firefly) [6]: direct targets
cisplatin resistance [7]: contributed to cisplatin resistance independently of p53
cisplatin resistance [8]: contributed to cisplatin resistance independently of p53
